Assay [1] deals with T1, human neutrophil elastase (HNE) (Homo sapiens, UniProt P08246).
T1 sequence (P08246 30-267): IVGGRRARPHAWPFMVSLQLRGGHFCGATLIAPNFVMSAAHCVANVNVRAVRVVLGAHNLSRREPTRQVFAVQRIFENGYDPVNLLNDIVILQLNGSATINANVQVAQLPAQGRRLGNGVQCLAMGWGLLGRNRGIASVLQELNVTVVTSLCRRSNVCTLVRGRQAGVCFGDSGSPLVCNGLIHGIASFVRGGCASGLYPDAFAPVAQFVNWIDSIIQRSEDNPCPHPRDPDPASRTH
In words: Potency (I50 Determination), HNE inhibition. In kind it is biochemical. The settings on record: substrate N-methoxysuccinyl-ala-ala-pro-val-pNA, pH 7.7, 7 minutes incubation at room temperature, 405 nm. The method, then: Potency (I50 Determination)
A) 0.075 M sodium phosphate, 20% dimethyl sulfoxide (DMSO), pH 7.7=substrate and inhibitor buffer
B) 0.075 M sodium phosphate, no DMSO, pH 7.7=inhibitor buffer
C) 10 mM human neutrophil elastase (HNE) substrate=N-methoxysuccinyl-ala-ala-pro-val-pNA in DMSO
D) 0.01 M sodium acetate, 20% DMSO, pH 5.5=enzyme buffer (dilution)
E) 0.01 M sodium acetate, pH 5.5 enzyme buffer (storage)
F) HNE (1 mg) dissolved in 1 ML of reagent E for storage at -20° C.
Make a 10 mM stock of the inhibitor in DMSO. Dilute an aliquot (10 μL) up to 1.0 mL in reagent A (100 μM). Serially dilute 100 μL of the 100 μM stock to […], 1.0, 0.1, 0.01 μM in reagent A. Apply 100 μL of the diluted material to the wells of a 96-well plate. Dilute an aliquot of reagent F 1:150 in reagent D, apply 50 μL aliquots to the indicated wells and incubate for 7 minutes at room temperature.
The HNE substrate solution is made by taking 100 μL of reagent C into 500 μL of reagent A and 400 μL of reagent B. After the 7 minutes of incubation, the substrate (50 μL) is applied to each well. The HNE catalyzed reaction is then monitored spectrophotometrically at 405 nm using an ELISA plate reader machine (UVMAX, Molecular Devices) which processes the raw data with an on-board kinetics program. The enzyme activity is plotted against different inhibitor concentrations and the […] is determined by using a curve fitting software program. Once the "screening" I50 has been approximated, a more precise I50 value can be obtained by examination of inhibitor concentrations around this value.

For assay [2], the system named is ischemia reperfusion injuries (myocardial infarct size). In words: Ischemia reperfusion injury in dogs, myocardial infarct size. The format is in vivo, dog. Here is the method: Experiments have been conducted on dogs to study the effect of the compounds of the invention in the treatment of ischemia reperfusion injuries.
The protocol used in the experiment referred to in the preceding paragraph involved the following:
Male mongrel dogs (13 to 17 kg) were anesthetized with sodium pentobarbital, 30 mg/kg i.v., intubated and ventilated with room air via a Harvard respirator. Lead II of the electrocardiogram and hemodynamics were monitored continuously throughout the course of the experiment. A catheter was inserted into the left carotid artery and advanced into the left ventricle for the continuous recording of left ventricular pressure. […] After 24 hr of reperfusion, the animal was reanesthetized, the thoracotomy incision opened, the heart fibrillated electrically and removed rapidly for postmortem quantification of infarct size.
Animals were randomized to receive either the test compound or a placebo (diluent) administered as an intracoronary infusion via a catheter inserted into the left circumflex coronary artery just distal to the point at which the vessel is occluded. The dose was determined on the basis of known pharmacokinetic data and the infusion was maintained throughout the 90 period of regional ischemia as well as during the 24 hour reperfusion period. […]

Here are results for 22 compounds from US5314910A, “Ester inhibitors” (Cortech Inc., priority 1993, dated 1994).

For `CCC(C(=O)Oc1ccc([S+](C)[O-])cc1)c1c[nH]c2ccccc12` (centres unmarked) [Compound 22], the 50% inhibitory concentration (IC50) in assay [1] amounted to 1900 nM. This counts as single-digit micromolar. Same read-out and setting: then `CCC(C(=O)Oc1ccc(SC)cc1)c1c[nH]c2ccccc12` (centres unmarked) [Compound 21], with 33000 nM; and `CCC(C(=O)Oc1ccc([S+](C)[O-])cc1)c1ccsc1` (centres unmarked) [Compound 12, 4-Methylsulfinylphenyl 2-(3-thiophene)butyrate], with 130 nM. The same measure, in the same setting: then `CCC(C(=O)Oc1ccc(SCC(C)(C)C(=O)O)cc1)c1cccn1C` (centres unmarked) [Compound 19, 4-(2'-Carboxy-2'-methylpropylmercapto)phenyl 2-(1-Methyl-2-pyrrole)butyrate], with 200 nM; and `CCC(C(=O)Oc1ccc(SC)cc1)c1ccoc1` (centres unmarked) [Compound 1], with 6060 nM; and `CCC(C(=O)Oc1ccc([S+](C)[O-])cc1)c1ccoc1` (centres unmarked) [Compound 2], with 1440 nM. On to `CCC(C(=O)Oc1ccc(SC)cc1)c1coc2ccccc12` (centres unmarked) [Compound 4], for which 3800 nM corresponded to half-maximal inhibition in assay [1] (IC50). The compound `CCC(C(=O)Oc1ccc([N+](=O)[O-])cc1)c1cccn1C` (centres unmarked) [Compound 18] gave an IC50 in assay [1] of 200 nM.

Regarding `CCC(C(=O)Oc1ccc([N+](=O)[O-])cc1)c1cccs1` (centres unmarked) [Compound 10], in assay [1], the IC50 was found to be 270 nM. In assay [1], `CCC(C(=O)Oc1ccc([S+](C)[O-])cc1)c1cccs1` (centres unmarked) [Compound 8] yielded an IC50 of 430 nM.

`CCC(C(=O)Oc1ccc(S(C)(=O)=O)cc1)c1ccsc1` (centres unmarked) [Compound 13, 4-Methylsulfonylphenyl 1-(3-thiophene)butyrate] had an IC50 in assay [1] of 50 nM. On the same count and under the same terms, for `CCC(C(=O)Oc1ccc(S(C)(=O)=O)cc1)c1coc2ccccc12` (centres unmarked) [Compound 6] the value was 150 nM. Same read-out and setting: then `CCC(C(=O)Oc1ccc(SC)cc1)c1cccs1` (centres unmarked) [Compound 7], with 3000 nM; and `CCC(C(=O)Oc1ccc(S(C)(=O)=O)cc1)c1cccs1` (centres unmarked) [Compound 9], with 290 nM; and `CCC(C(=O)Oc1ccc(SC)cc1)c1ccsc1` (centres unmarked) [Compound 11, 4-Methylmercaptophenyl 2-(3-thiophene)butyrate], with 1500 nM. On to `CCC(C(=O)Oc1ccc([S+](C)[O-])cc1)c1cccn1C` (centres unmarked) [Compound 16, 4-Methylsulfinylphenyl 2-(1-Methyl-2-pyrrole)butyrate], for which, in assay [1], the IC50 is 460 nM. Moreover, the “reduction in infarct size compared to the controls (in words)” value in assay [2] is given as “significant reduction in infarct size”. On to `CCC(C(=O)Oc1ccc(SC)cc1)c1cccn1C` (centres unmarked) [Compound 15, 4-Methylmercaptophenyl 2-(1-Methyl-2-pyrrole)butyrate], for which the IC50 in assay [1] amounted to 6200 nM.

For `CCC(C(=O)Oc1ccc([N+](=O)[O-])cc1)c1ccsc1` (centres unmarked) [Compound 14], in assay [1], the IC50 was 120 nM. The compound `CCC(C(=O)Oc1ccc([S+]([O-])CC(C)(C)C(=O)O)cc1)c1cccn1C` (centres unmarked) [Compound 20, 4-(2,-Carboxy-2'-methylpropylsulfinyl)phenyl 2-(1-Methyl-2-pyrrole)butyrate] had an IC50 in assay [1] of 590 nM. On the same count and under the same terms, for `CCC(C(=O)Oc1ccc([S+](C)[O-])cc1)c1coc2ccccc12` (centres unmarked) [Compound 5] the value was 420 nM. In assay [1], `CCC(C(=O)Oc1ccc(S(C)(=O)=O)cc1)c1cccn1C` (centres unmarked) [Compound 17, 4-Methylsulfonylphenyl 2-(1-Methyl-2-pyrrole)butyrate] had an IC50 of 60 nM. On the same count and under the same terms, for `CCC(C(=O)Oc1ccc(S(C)(=O)=O)cc1)c1ccoc1` (centres unmarked) [Compound 3] the value was 470 nM.

Broadly, the IC50 is the point on the concentration scale where inhibition reaches its midpoint. A higher IC50 goes with lower potency.
